Experimental data as given in patent publication US7569208B2, “Diagnostic agents for pancreatic exocrine function” (Tokyo Gas Company Limited, priority 1999, dated 2009).

Experiments:
[1] = tested on: pancreatic exocrine function; test: 13C breath test after oral administration to oleic acid-induced chronic pancreatitis and control rats (13CO2 analyzer); type: in vivo, rat; details: for Δ^13C (‰) value in exhaled CO2: 75 mg/kg oral, at 10 minutes
Protocol: ^13C-labeled cyclodextrin breath test was carried out wherein ^13C-labeled cyclodextrin prepared in Example 1 was orally administered to chronic pancreatitis and control rats and the time course of the ^13C concentration in the exhaled CO2 after the administration was measured.
(§1) According to Mundlos et al. (Mundlos et al., Pancreas, 1:29 (1986)), the chronic pancreatitis rats were prepared by injecting oleic acid into the pancreatic duct of Wistar male rats of 5 weeks old and kept for 3 weeks. Rats in which midline incision was made on the abdomen were used as the control.
The chronic pancreatitis and control rats of 8 weeks old, which fasted overnight, were fixed without anesthesia in a rat holder for a microwave irradiation apparatus. The breath was collected at a rate of about 100 to 300 ml/min using a stroke pump (Variable Stroke Pump VS-500, Shibata Kagaku Kogyo) and introduced directly to a flow cell of a ^13CO2 analyzer EX-130S (Nihon Bunko) to measure ^13C atom % and the carbon dioxide gas concentration continuously. A Perma Pure drier (MD-050-12P, Perma Pure Inc.) was set between the rat holder and the stroke pump to remove out water vapor in the breath. After the CO2 concentration was stabilized, the rat was once removed out of the rat holder and an aqueous solution of ^13C-labeled cyclodextrin was administered (75 mg/kg, 5 ml/kg) into the stomach using an oral sonde.
Δ^13C (‰) was calculated from the ^13C concentration in the exhaled CO2 at each time point (^13C tmin) and the ^13C concentration in standard CO2 (^13C std) according to the following equation: Δ^13C (‰)=[(^13C tmin−^13C 0 min)/^13C std]×1000

[2] = tested on: pancreatic exocrine function; test: 13C breath test after oral administration in olive oil to chronic pancreatitis and control rats (GC-MS); type: in vivo, rat
Protocol: A ^13C-FDL breath test was carried out wherein ^13C-FDL was orally administered to chronic pancreatitis and control rats and the time course of the ^13C concentration in the exhaled CO2 after the administration was measured.
as §1
The chronic pancreatitis and control rats of 8 weeks old, which fasted overnight, were fixed without anesthesia in a rat holder for a microwave irradiation apparatus. The breath was collected at a rate of about 100 to 300 ml/min using a CO2 meter (CAPSTER-100) to monitor the CO2 concentration. […]
The breath was taken out as a sample immediately before the administration and at every hour for 5 hours after the administration and the ^13C concentration in the exhaled CO2 was analyzed by a gas chromatography-mass spectrometer (GC-MS). The analytic conditions for GC-MS are as follows. The CO2 concentration in the collected breath was held at 3±0.5%. GC-MS conditions:
Assuming that the isotopic abundance of oxygen is the same as that which is naturally occurring, ^13C concentration was calculated from the peak areas of the ions m/z=45 and 46 according to the following equation: […]
Δ^13C (‰) was calculated from the ^13C concentration in the exhaled CO2 at each time point (^13C tmin) and the ^13C concentration in standard CO2 (^13C std) according to the following equation: Δ^13C (‰)=[(^13C tmin−^13C 0 min)/^13C std]×1000 12.2 Results

[3] = Solubility / precipitation of phenylalanine in distilled water with or without hydroxypropyl-β-cyclodextrin; type: physicochemical; details: 299 mg of [1-^13C]-phenylalanine in 5 ml distilled water, dissolved at 85° C., cooled to 25° C.
Description: The increase of solubility of phenylalanine in the presence of hydroxypropyl-β-cyclodextrin confirmed the formation of (1-^13C]-phenylalanine/hydroxypropyl-β-cyclodextrin inclusion complex.

[4] = at 25° C.; cited from earlier work

For “galactosyl ^13C-maltohexaose [galactosyl ^13C-labeled maltohexaose]”, the Δ^13C (‰) value in exhaled CO2 ([1]; chronic pancreatitis rats) was 18.9 ± 17 ‰, the Δ^13C (‰) value in exhaled CO2 ([1]; control rats) was 95.6 ± 42.4 ‰ and the “increase in Δ^13C (‰) value of chronic pancreatitis rats compared with control rats” value ([1]; galactosyl ^13C-maltohexaose 75 mg/kg oral, for 30 minutes (FIG. 4)) was “smaller than the control rats”.

With ^13C-dilaurylfluorescein [^13C-FDL] the “Δ^13C (‰) values of chronic pancreatitis rats compared with control rats” value ([2]; 160 mg/kg oral in olive oil, at each time point for 5 hours (FIG. 10)) was “smaller than the control rats”, the “Δ^13C (‰) value in exhaled CO2” value ([2]; chronic pancreatitis rats, 160 mg/kg oral in olive oil, at 3 hours) was 42.0±21.3 ‰ and the “Δ^13C (‰) value in exhaled CO2” value ([2]; chronic pancreatitis rats, 160 mg/kg oral in olive oil, at 5 hours) was 95.4±47.1 ‰. For the same compound, the “Δ^13C (‰) value in exhaled CO2” value ([2]; control rats, 160 mg/kg oral in olive oil, at 3 hours) was 153.3±22.8 ‰ and the “Δ^13C (‰) value in exhaled CO2” value ([2]; control rats, 160 mg/kg oral in olive oil, at 5 hours) was 236.3±12.4 ‰.

For `N[C@@H](C[13c]1ccccc1)C(=O)O` [(1-^13C]-phenylalanine, [1-^13C]-phenylalanine], the “precipitation of phenylalanine when the solution was allowed to cool to 25° C.” value [3] was “phenylalanine was precipitated”.

With ^13C-dioctanoylfluorescein [^13C-FDO] the “Δ^13C (‰) values of chronic pancreatitis rats compared with control rats” value ([2]; 200 mg/kg oral in olive oil, at each time point for 5 hours (FIG. 11)) was “smaller than the control rats”, the “Δ^13C (‰) value in exhaled CO2” value ([2]; chronic pancreatitis rats, 200 mg/kg oral in olive oil, at 1 hour) was 2.7±3.8 ‰ and the “Δ^13C (‰) value in exhaled CO2” value ([2]; chronic pancreatitis rats, 200 mg/kg oral in olive oil, at 3 hours) was 18.4±12.1 ‰. For the same compound, the “Δ^13C (‰) value in exhaled CO2” value ([2]; chronic pancreatitis rats, 200 mg/kg oral in olive oil, at 4 hours) was 15.2±13.4 ‰, the “Δ^13C (‰) value in exhaled CO2” value ([2]; chronic pancreatitis rats, 200 mg/kg oral in olive oil, at 5 hours) was 20.6±11.2 ‰ and the “Δ^13C (‰) value in exhaled CO2” value ([2]; control rats, 200 mg/kg oral in olive oil, at 1 hour) was 46.3±11.5 ‰. The “Δ^13C (‰) value in exhaled CO2” value ([2]; control rats, 200 mg/kg oral in olive oil, at 3 hours) was 60.6±12.7 ‰, the “Δ^13C (‰) value in exhaled CO2” value ([2]; control rats, 200 mg/kg oral in olive oil, at 4 hours) was 88.7±8.2 ‰ and the “Δ^13C (‰) value in exhaled CO2” value ([2]; control rats, 200 mg/kg oral in olive oil, at 5 hours) was 73.6±14.1 ‰.

In the case of `N[C@@H](Cc1ccccc1)C(=O)O` [phenylalanine], the solubility [4] is given as 148 mg/5 ml.
